US10265372B2, “Molecular composition for enhancing and rejuvenating maintenance and repair of mammalian tissues” (The Regents of the University of California, priority 2014, dated 2019)
“Also recorded” adds a separate entry of the source.

Columns and labels:
[1] = test system: TA muscle regeneration after CTX injury; assay: In vivo epistasis between TGFβ1 and oxytocin: TA muscle regeneration after CTX injury (FIG. 4A-4B); design: species or system mouse; settings: young (3 mo) mice, CTX-injured TA, 5 days after injury; for Muscle regeneration after injury, effect of ectopic TGFβ1 alone (histology): recombinant TGFβ1 20 ng/muscle
Method: Further support for the advantages of the combined administration of OT and Alk5i comes from the observation of epistasis between the TGF-beta1 and oxytocin.
FIGS. 4A and 4B show the in vivo epistasis between TGFβ1 and Oxytocin. Young (3 mo) mouse TA muscles were injured with CTX with or without recombinant TGFβ1 (20 ng/muscle), and mice were administered 1 μg/g OT or vehicle (HBSS) by subcutaneous delivery into circulation. TGFβ1 or vehicle and OT were administered again the following day. Mice were sacrificed 5 days after injury and muscle sectioned for histological examination (with Hematoxilin and Eosin staining) in 10 um cryosections. All samples were processed and analyzed in a blinded study. […] FIG. 4B depicts the regenerative index of the three different conditions. The regenerative index was quantified by expressing the number of newly formed fibers over total nuclei in the injury/regeneration sites; *p<0.01.

muscle regeneration [2] = settings: Elabd et al. 2014, cited from earlier work
muscle regeneration [3] = assay: Systemic oxytocin or oxytocin antagonist and muscle regeneration in mice; format: in vivo, mouse; settings: OT alone
Source text: OXTR agonists may be used to treat and prevent sarcopenia, improve muscle regeneration after injury and prevent muscle mass loss observed after long term immobilization (bed rest or cast), as well as low gravity (space travel). Specifically, oxytocin is more desirable than other drugs on the market or under development, since it is physiologic, has virtually no side effects and is already FDA approved to induce labor in pregnant women and in clinical trials to treat children with autism. The plasmatic level of oxytocin decreases with age in mice. […] Confirming the dependence of muscle maintenance and repair on oxytocin, mice with a knock out in oxytocin have defective muscle regeneration and premature sarcopenia (loss of muscle tissue). Oxytocin is also known to prevent osteoporosis and regulate fat distribution after menopause. Oxytocin inhibits p16 (marker and effector of senescence) in adult stem cells, thereby enabling their productive responses to maintain and repair tissues.

[4] = test system: muscle stem cells (satellite cells); assay: Effects of OT and OTA on muscle stem (satellite) cells; format: cell-based, mouse
[5] = test system: muscle stem cells (satellite cells); settings: cited from earlier work
primary myoblasts = assay: Primary myoblast proliferation, BrdU pulse, OT/Alk5i dose matrix (FIG. 3A); format: cell-based, mouse; settings: primary myoblasts in Opti-MEM (low mitogen), OT in nM, Alk5i in μM
Source text: (§1) FIGS. 3A-3C depict dose-curve matrices of OT, Alk5i and OT+Alk5i effects on myogenic and neurogenic cell proliferation. FIGS. 3A-3C show the effect of the indicated concentrations of OT (in nM) and Alk5-inhibitor (a5i, μM) on primary myoblasts in Opti-MEM (FIG. 3A); on old satellite cells isolated from 3 DPI muscle in Opti-MEM with 5% old mouse serum (FIG. 3B); and on rat neural precursor cells in basal medium (DMEM/F12/N2) (FIG. 3C). Cells were pulsed with BrdU, and BrdU immunodetection and Hoechst staining were performed. Percent proliferating cells (myogenic and neurogenic) were quantified (manually, by ImageJ and by Molecular Devices ImageXpress Micro automated epifluorescence imager, with automated cell quantification by MetaXpress). Shown is the percent proliferation visualized as a topographic map.
Isolation of Muscle Stem Cells and Primary Myoblasts: Tibialis Anterior (TA) and Gastrocneimus (Gastroc) muscles will undergo enzymatic digestion with collagenase type II. Fat pads and tendons will be removed and rounds of muscle trituration and sedimentation will purify myofibers with associated muscle stem (satellite) cells. Myofibers will be incubated with collagenase type II and dispase; suspensions will be vortexed to release satellite cells from digested fibers, passed through a cell strainer and pre-plated on uncoated dishes for 20 minutes at 37° C., 5% CO2. […]

[6] = test system: rat neural precursor cells; assay: Neural precursor cell proliferation in basal medium, BrdU pulse (FIG. 3C); format: cell-based; settings: rat neural precursor cells in basal medium (DMEM/F12/N2)
Source text: as §1
Isolation and Culture of Neural Progenitor Cells: Primary rat neural progenitor cells (NPCs) isolated from the hippocampi of Fisher 344 rats (Charles River) will be maintained in DMEM/F12 (Life Technologies) containing N2 supplement (Life Technologies) and 10 ng/mL FGF-2 (PeproTech) on laminin (Roche) and polyornithine (Sigma) coated tissue culture plates. […]

In the case of CC[C@H](C)[C@@H]1NC(=O)[C@H](Cc2ccc(O)cc2)NC(=O)[C@@H](N)CSSC[C@@H](C(=O)N2CCC[C@H]2C(=O)N[C@@H](CC(C)C)C(=O)NCC(N)=O)NC(=O)[C@H](CC(N)=O)NC(=O)[C@H](CCC(N)=O)NC1=O [OT, oxytocin], the “Muscle regeneration after injury in mice given ectopic TGFβ1 (histology)” value ([1]; TGFβ1 20 ng/muscle, OT 1 μg/g subcutaneous) is listed as “rescued muscle regeneration; also recorded: rescues the regeneration of young muscle injected with TGFβ1”, the “Muscle regeneration in old mice” value (muscle regeneration [2]; old mice, short term subcutaneous injection (systemic delivery)) is listed as “able to restore muscle regeneration” and the “Muscle maintenance and repair in old mice” value (muscle regeneration [3]) is listed as “significantly enhances muscle maintenance and repair”. For the same molecule, the “pERK in muscle stem cells” value ([4]; muscle stem cells) was “activates pERK”, the “CDKIs in satellite cells” value ([4]; old satellite cells) was “attenuates CDKIs” and the “Proliferation and myogenicity of old satellite cells” value ([4]; old satellite cells) was “enhances proliferation and myogenicity”. For the same molecule, the “OtKO satellite cell decline” value ([4]; satellite cells of oxytocin knock out (OtKO) mice) was “rescues the OtKO satellite cell decline” and the “p16 (marker and effector of senescence) in adult stem cells” value [5] was “inhibits p16”.
In the case of Cc1cccc(-c2n[nH]cc2-c2ccc3ncccc3n2)n1 [Alk5i, 2-(3-(6-Methylpyridin-2-yl)-1H-pyrazol-4-yl)-1,5-naphthyridine], the “Percent proliferating cells (BrdU), myoblast proliferation” value (primary myoblasts) is reported as “bi-phasic effect on myoblast proliferation”, the “Expression of CDKIs” value (aged mice; aged mice) is reported as “attenuates the expression of CDKIs” and the Myogenesis and neurogenesis (aged mice; aged/old mice, systemic Alk5i alone, listed as ALK5 inhibitor) is reported as “simultaneously rejuvenates myogenesis and neurogenesis”. The Inflammation (aged mice; delivered systemically into 2-year old mice) was “reduces inflammation”, the “pSmads in Sox-2+ cells of SGZ” value (aged mice; systemically administered) was “down-modulating pSmads” and the “Percent proliferating cells (BrdU), NPC proliferation” value [6] was “diminishes proliferation of NPCs”.
With “TGFβ1: recombinant TGFβ1, given ectopically into injured muscle (R&D systems)” the “Muscle regeneration after injury, effect of ectopic TGFβ1 alone (histology)” value [1] was “promotes scarring” and the “Muscle regeneration after injury, effect of ectopic TGFβ1 alone (histology)” value ([1]; listed as TGF-beta 1) was “inhibited muscle regeneration”.
For COc1cc(OC2CCN(C(C)=O)CC2)ccc1C(=O)N1CCC(N2C(=O)OCc3ccccc32)CC1 [OTA], the “Muscle regeneration potential in young mice” value (muscle regeneration [2]; young mice, injection of oxytocin antagonist) is listed as “prematurely ages their muscle regeneration potential” and the “Myogenicity of young satellite cells” value ([4]; young satellite cells) is listed as “inhibits myogenicity”.
